Values belong to the compound of their own block, whether it stands above or below them.
Columns and labels:
[1] = target: T1, 3-phosphoinositide-dependent protein kinase 1 (Homo sapiens, UniProt O15530)
T1 sequence (O15530 whole entry): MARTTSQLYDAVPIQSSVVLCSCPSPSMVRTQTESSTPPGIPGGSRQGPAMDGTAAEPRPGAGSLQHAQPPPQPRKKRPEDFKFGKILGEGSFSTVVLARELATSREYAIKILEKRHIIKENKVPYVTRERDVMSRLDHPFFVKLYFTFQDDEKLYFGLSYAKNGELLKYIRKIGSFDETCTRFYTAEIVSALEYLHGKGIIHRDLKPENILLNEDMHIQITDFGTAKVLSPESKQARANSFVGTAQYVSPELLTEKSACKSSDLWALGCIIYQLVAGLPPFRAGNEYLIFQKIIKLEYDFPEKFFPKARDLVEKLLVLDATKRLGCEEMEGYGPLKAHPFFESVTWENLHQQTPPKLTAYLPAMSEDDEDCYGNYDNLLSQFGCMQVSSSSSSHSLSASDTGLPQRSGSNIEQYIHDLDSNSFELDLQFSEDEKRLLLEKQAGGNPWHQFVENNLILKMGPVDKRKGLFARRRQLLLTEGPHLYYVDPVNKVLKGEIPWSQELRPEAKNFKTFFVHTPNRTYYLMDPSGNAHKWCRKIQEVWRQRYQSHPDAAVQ
Description: Inhibition of His-tagged-truncated human PDK1 preincubated with substrate biotinylated-AKT3 for 30 mins measured after 3 hrs by Scintillation proximity assay

[2] = target: T1, 3-phosphoinositide-dependent protein kinase 1; experiment: Inhibition of human PDK1 preincubated with substrate biotinylated PDKtide for 30 mins measured after 4 hrs by Scintillation proximity assay
[3] = target: RAC-alpha serine/threonine-protein kinase (Homo sapiens, UniProt P31749); experiment: Inhibition of AKT1
RAC-alpha serine/threonine-protein kinase, sequence (P31749 whole entry): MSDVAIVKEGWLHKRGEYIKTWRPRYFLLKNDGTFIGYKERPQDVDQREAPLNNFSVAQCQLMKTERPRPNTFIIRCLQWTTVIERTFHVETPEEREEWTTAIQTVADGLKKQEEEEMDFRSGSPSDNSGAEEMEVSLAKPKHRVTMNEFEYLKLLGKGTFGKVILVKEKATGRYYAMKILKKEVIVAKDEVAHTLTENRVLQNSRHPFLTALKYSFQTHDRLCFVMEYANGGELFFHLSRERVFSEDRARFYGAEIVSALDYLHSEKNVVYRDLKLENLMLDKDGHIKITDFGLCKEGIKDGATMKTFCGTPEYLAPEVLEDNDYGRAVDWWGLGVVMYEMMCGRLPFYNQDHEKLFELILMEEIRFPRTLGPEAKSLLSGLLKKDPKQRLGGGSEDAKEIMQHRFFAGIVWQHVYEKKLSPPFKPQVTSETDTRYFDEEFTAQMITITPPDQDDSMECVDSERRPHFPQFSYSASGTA

[4] = target: T2, Mitogen-activated protein kinase kinase kinase 5 (Homo sapiens, UniProt Q99683); experiment: Inhibition of ASK1
T2 sequence (Q99683 whole entry): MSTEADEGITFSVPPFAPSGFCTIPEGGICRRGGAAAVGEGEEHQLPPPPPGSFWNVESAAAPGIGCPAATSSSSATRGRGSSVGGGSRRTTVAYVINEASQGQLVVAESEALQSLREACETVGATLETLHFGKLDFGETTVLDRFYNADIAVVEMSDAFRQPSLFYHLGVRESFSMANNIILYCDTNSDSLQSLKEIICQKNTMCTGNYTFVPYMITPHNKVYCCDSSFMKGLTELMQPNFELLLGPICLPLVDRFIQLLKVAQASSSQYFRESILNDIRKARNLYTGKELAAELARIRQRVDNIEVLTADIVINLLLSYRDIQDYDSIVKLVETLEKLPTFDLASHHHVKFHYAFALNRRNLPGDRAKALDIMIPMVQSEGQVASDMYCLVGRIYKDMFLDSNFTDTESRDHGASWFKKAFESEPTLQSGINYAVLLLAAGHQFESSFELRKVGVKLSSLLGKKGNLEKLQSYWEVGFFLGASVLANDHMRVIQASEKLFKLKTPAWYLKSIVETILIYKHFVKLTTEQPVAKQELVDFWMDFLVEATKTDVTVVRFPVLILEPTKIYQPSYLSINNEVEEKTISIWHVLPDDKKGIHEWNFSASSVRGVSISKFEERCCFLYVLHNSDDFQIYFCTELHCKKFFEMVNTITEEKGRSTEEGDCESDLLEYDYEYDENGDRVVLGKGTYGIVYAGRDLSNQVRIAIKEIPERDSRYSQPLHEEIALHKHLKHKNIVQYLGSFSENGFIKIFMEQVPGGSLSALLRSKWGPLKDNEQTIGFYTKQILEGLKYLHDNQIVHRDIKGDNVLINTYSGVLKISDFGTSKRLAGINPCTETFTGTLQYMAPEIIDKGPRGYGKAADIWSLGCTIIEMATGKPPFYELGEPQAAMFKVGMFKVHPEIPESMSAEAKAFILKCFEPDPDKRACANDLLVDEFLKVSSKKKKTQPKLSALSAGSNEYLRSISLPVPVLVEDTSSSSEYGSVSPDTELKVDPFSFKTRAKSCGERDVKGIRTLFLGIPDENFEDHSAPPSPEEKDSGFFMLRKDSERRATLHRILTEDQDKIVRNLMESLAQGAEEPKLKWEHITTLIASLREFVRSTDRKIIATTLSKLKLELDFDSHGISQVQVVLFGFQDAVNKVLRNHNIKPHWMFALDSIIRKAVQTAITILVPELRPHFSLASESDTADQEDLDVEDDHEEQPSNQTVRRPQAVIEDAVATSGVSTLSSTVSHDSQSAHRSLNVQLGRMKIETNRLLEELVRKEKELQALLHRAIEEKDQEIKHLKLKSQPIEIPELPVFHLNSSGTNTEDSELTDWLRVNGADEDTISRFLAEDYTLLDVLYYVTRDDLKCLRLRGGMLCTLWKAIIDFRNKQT

Aurora kinase A = target: T3, Aurora kinase A (Homo sapiens, UniProt O14965); experiment: Inhibition of Aurora A
T3 sequence (O14965 whole entry): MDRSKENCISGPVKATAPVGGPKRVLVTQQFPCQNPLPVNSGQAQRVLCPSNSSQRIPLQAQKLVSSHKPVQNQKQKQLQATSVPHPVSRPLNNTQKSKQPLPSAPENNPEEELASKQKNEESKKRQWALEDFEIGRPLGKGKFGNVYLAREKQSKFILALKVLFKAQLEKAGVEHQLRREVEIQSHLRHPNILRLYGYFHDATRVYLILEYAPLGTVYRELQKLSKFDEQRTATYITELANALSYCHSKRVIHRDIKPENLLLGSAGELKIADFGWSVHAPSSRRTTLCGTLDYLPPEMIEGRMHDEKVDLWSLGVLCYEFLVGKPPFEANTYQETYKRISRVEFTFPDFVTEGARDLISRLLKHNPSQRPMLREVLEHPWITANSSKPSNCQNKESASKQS

[5] = target: Cyclin-dependent kinase 2 (Homo sapiens, UniProt P24941); experiment: Inhibition of CDK2
[6] = target: T4, Serine/threonine-protein kinase Chk1 (Homo sapiens, UniProt O14757); experiment: Inhibition of CHK1
T4 sequence (O14757 whole entry): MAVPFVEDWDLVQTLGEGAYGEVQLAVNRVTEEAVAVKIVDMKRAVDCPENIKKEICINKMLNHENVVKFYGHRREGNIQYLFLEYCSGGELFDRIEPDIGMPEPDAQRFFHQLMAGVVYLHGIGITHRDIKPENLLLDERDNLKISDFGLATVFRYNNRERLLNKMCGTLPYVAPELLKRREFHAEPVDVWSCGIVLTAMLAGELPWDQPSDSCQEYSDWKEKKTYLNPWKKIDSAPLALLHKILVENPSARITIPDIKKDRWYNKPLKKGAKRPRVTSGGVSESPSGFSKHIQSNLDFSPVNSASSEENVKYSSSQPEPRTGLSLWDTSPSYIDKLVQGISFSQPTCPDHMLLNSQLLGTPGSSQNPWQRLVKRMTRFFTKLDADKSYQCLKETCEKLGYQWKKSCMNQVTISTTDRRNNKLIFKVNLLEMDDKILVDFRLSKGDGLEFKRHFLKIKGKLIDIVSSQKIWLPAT

[7] = target: Insulin-like growth factor 1 receptor (Homo sapiens, UniProt P08069); experiment: Inhibition of IGF1R
Insulin-like growth factor 1 receptor, sequence (P08069 31-736 limits assumed): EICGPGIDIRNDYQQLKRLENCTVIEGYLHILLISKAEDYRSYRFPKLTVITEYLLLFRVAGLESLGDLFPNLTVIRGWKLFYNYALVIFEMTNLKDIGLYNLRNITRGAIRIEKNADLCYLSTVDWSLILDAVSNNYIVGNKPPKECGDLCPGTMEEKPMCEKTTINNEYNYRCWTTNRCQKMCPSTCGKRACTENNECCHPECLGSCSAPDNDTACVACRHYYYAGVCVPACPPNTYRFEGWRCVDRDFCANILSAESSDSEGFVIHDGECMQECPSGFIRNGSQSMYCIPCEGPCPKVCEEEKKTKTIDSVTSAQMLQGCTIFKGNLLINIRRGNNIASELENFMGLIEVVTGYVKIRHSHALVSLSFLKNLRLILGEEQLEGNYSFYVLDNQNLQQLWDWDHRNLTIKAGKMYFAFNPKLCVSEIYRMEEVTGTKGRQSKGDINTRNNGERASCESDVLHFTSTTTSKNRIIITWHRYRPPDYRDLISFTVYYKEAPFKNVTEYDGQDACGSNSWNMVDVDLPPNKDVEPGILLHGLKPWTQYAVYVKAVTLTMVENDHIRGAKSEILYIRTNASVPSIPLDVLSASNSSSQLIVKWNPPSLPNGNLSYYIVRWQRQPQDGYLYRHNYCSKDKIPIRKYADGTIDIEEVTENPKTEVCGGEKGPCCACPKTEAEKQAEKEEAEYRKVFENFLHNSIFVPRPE
Insulin-like growth factor 1 receptor, sequence (P08069 741-1367 limits assumed): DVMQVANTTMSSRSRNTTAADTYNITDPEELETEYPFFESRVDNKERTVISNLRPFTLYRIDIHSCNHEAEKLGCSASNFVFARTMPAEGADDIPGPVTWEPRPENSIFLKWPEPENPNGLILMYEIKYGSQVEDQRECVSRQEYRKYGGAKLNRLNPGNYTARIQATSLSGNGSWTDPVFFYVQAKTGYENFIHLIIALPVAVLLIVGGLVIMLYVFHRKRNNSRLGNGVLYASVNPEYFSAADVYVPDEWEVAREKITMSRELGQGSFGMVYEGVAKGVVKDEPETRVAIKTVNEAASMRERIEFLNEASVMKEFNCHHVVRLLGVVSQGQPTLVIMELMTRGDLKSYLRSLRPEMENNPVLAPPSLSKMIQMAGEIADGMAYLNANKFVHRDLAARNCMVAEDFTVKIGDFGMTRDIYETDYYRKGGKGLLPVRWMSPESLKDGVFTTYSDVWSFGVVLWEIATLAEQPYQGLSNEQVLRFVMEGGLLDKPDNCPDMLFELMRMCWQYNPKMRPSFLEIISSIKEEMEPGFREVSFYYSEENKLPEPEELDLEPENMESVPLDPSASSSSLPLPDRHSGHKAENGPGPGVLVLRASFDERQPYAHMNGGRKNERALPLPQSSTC

[8] = target: T5, Inhibitor of nuclear factor kappa-B kinase subunit alpha (Homo sapiens, UniProt O15111); experiment: Inhibition of IKK1
T5 sequence (O15111 whole entry): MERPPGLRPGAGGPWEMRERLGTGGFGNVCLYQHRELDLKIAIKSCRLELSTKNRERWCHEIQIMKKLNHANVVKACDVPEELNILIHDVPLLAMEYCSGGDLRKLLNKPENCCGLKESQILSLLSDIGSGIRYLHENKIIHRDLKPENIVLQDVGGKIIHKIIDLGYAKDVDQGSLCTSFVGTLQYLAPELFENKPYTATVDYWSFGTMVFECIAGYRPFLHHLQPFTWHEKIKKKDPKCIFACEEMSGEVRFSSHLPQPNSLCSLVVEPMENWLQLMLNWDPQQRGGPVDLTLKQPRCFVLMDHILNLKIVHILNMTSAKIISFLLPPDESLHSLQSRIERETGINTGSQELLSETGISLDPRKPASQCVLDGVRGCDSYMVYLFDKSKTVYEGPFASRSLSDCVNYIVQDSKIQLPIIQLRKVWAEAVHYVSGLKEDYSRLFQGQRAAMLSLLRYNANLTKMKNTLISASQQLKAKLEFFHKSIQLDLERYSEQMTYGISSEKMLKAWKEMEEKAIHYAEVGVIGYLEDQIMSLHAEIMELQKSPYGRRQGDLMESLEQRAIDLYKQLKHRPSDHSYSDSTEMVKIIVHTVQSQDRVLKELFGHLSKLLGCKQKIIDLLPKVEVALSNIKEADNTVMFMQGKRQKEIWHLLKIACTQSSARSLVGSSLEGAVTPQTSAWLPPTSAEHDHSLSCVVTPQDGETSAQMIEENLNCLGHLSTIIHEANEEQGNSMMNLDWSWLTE

Insulin receptor = Insulin receptor (Homo sapiens, UniProt P06213); experiment: Inhibition of INS
Insulin receptor, sequence (P06213 28-758 limits assumed): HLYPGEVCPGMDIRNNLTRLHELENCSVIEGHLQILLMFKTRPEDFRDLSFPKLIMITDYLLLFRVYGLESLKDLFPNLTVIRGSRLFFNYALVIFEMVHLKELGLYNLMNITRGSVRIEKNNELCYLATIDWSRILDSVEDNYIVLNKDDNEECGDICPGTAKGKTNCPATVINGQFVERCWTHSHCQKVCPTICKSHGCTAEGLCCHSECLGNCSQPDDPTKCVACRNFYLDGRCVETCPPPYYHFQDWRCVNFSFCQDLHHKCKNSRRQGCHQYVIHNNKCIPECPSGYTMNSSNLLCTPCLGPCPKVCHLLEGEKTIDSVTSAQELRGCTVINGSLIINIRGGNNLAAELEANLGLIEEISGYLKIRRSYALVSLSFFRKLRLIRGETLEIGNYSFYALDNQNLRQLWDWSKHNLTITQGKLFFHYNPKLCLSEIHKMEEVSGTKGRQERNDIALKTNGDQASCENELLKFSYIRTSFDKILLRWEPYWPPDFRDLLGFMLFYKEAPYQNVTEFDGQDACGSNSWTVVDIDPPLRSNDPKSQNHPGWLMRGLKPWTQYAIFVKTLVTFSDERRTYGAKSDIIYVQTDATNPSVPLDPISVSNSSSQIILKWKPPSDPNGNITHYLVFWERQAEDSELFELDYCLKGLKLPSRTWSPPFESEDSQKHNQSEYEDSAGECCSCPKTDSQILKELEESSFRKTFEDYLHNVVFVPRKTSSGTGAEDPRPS
Insulin receptor, sequence (P06213 763-1382 limits assumed): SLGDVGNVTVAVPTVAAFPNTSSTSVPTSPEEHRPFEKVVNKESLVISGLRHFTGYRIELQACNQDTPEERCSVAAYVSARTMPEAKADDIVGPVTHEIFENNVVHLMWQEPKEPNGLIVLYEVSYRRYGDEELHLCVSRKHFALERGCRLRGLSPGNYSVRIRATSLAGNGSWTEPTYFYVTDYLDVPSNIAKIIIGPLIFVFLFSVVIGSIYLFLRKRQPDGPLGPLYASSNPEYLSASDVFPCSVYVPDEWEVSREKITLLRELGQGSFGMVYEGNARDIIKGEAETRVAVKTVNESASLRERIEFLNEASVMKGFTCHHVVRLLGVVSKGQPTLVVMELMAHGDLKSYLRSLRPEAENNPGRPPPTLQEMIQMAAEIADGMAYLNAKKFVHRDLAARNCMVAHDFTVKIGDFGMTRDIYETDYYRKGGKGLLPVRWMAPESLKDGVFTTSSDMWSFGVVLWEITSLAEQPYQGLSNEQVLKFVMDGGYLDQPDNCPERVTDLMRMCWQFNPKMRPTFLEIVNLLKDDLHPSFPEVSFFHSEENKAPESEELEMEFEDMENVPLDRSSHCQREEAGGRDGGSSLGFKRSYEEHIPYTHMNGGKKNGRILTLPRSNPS

[9] = target: T6, Tyrosine-protein kinase JAK3 (Homo sapiens, UniProt P52333); experiment: Inhibition of JAK3
T6 sequence (P52333 whole entry): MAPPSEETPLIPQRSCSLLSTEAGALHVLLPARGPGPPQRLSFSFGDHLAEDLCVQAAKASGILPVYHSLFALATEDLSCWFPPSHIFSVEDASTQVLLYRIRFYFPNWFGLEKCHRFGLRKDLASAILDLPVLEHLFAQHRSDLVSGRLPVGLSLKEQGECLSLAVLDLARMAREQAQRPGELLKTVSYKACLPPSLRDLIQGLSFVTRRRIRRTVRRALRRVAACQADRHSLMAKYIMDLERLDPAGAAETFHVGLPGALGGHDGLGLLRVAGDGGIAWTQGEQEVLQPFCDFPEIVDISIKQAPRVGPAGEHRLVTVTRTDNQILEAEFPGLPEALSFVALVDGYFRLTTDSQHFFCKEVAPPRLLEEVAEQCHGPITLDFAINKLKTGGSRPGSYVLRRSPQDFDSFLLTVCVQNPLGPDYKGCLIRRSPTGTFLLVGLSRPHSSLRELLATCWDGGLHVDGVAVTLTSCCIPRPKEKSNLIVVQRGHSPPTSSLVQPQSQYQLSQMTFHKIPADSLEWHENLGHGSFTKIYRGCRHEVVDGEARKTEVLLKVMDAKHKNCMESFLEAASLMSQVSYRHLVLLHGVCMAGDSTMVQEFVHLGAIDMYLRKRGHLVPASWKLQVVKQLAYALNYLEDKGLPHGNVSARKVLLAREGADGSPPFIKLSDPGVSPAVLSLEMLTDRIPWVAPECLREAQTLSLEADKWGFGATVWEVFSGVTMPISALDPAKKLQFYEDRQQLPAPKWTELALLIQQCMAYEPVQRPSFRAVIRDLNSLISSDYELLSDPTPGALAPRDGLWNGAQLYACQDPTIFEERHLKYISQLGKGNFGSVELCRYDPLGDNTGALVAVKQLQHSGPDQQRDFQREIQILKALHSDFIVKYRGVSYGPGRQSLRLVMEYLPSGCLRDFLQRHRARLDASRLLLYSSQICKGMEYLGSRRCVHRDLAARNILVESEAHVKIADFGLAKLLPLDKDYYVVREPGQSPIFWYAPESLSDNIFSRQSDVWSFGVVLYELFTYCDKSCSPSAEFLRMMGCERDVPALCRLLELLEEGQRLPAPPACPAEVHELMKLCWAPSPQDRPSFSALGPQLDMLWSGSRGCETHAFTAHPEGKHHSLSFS

[10] = target: Mitogen-activated protein kinase 8 (Homo sapiens, UniProt P45983); experiment: Inhibition of JNK1
[11] = target: Ribosomal protein S6 kinase beta-1 (Homo sapiens, UniProt P23443); experiment: Inhibition of p70S6K
Ribosomal protein S6 kinase beta-1, sequence (P23443 whole entry, canonical isoform): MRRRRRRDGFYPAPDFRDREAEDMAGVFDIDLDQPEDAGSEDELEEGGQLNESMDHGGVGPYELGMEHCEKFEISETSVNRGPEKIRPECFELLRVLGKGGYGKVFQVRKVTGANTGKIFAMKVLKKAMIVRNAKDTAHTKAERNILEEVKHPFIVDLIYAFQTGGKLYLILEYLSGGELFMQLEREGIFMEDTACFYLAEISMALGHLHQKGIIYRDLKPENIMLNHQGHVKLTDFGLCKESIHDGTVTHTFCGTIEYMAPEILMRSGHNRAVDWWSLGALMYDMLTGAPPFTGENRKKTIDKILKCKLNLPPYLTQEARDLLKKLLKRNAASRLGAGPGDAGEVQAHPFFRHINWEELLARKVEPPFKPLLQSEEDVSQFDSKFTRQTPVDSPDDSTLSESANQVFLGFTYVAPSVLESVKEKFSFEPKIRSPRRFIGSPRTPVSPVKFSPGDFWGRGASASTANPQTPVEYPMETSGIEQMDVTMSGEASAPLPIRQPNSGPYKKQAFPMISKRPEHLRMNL

[12] = target: Phosphatidylinositol 4,5-bisphosphate 3-kinase catalytic subunit alpha isoform (Homo sapiens, UniProt P42336); experiment: Inhibition of PI3Kalpha
Phosphatidylinositol 4,5-bisphosphate 3-kinase catalytic subunit alpha isoform, sequence (P42336 whole entry, canonical isoform): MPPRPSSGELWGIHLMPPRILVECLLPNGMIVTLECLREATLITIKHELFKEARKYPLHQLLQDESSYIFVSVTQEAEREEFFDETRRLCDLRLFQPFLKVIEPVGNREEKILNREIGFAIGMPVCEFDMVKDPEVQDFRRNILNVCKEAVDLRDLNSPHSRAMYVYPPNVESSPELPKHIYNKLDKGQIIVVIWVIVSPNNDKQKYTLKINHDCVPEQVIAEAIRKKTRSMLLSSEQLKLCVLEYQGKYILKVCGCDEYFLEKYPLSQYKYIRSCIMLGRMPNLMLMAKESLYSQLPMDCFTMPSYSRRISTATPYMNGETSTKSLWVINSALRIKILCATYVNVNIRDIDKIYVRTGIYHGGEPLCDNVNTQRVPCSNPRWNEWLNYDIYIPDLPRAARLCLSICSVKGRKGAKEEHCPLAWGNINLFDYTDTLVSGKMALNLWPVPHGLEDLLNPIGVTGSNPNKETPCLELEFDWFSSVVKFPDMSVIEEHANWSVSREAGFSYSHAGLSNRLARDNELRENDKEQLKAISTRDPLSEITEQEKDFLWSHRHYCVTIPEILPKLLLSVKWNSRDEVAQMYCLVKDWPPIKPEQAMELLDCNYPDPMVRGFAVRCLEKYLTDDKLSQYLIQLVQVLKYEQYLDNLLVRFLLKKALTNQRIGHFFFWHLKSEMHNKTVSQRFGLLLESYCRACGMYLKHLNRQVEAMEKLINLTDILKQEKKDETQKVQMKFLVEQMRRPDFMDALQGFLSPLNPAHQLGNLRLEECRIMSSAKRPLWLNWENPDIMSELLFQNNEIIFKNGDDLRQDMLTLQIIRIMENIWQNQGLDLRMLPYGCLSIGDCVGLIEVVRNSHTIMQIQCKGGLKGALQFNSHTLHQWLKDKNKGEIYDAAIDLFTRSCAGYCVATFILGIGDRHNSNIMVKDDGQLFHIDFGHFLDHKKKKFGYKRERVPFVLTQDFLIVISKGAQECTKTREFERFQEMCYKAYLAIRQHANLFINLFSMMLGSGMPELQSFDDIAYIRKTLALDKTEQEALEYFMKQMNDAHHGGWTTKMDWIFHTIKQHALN

[13] = target: T7, Serine/threonine-protein kinase Sgk1 (Homo sapiens, UniProt O00141); experiment: Inhibition of SGK1
T7 sequence (O00141 whole entry): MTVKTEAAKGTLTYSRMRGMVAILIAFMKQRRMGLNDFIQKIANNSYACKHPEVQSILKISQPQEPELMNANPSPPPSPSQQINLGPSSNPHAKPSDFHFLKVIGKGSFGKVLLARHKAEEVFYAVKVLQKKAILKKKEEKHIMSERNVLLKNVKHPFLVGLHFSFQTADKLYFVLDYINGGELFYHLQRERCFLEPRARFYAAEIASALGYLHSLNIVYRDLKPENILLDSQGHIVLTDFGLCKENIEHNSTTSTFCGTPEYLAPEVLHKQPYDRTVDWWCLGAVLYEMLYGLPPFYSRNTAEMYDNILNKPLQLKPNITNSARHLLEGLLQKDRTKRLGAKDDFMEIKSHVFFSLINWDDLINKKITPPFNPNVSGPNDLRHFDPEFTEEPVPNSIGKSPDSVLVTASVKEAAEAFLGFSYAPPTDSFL

[14] = target: Vascular endothelial growth factor receptor 2 (Homo sapiens, UniProt P35968); experiment: Inhibition of VEGFR2

SMILES: c1ccc(-c2nccs2)cc1 [2-PHENYLTHIAZOLE]
IC50 [1]: 95.1 µM

SMILES: Nc1cc(-c2ccc3c(N)n[nH]c3c2)ccn1
IC50 [2]: 7.28 µM

SMILES: Nc1cc2ccccc2cn1 [ISOQUINOLIN-3-AMINE]
IC50 [1]: 376 µM

SMILES: Nc1nccc(-c2ccc3c(N)n[nH]c3c2)n1
IC50 [3]: > 10 µM
IC50 [4]: 5.69 µM
IC50 (Aurora kinase A): 0.39 µM
IC50 [5]: 0.28 µM
IC50 [6]: > 10 µM
IC50 [7]: > 10 µM
IC50 [8]: 0.1 µM
IC50 (Insulin receptor): > 10 µM
IC50 [9]: 0.99 µM
IC50 [10]: > 10 µM
IC50 [11]: 6.34 µM
IC50 [12]: > 10 µM
IC50 [13]: > 10 µM
IC50 [14]: 0.84 µM
IC50 [2]: 0.37 µM

SMILES: c1cc(-c2cc[nH]n2)ccn1
IC50 [1]: 326 µM

Further lines, results first:

IC50 [1]: 97.5 µM
SMILES: NC(=O)c1cccc2cc[nH]c12

IC50 [1]: 200 µM
SMILES: NC(=O)c1[nH]ncc1N

IC50 [1]: 50.8 µM
SMILES: Nc1nc(N)c2[nH]cnc2n1 [2,6-DIAMINOPURINE]

IC50 [1]: 313 µM
SMILES: Nc1cc(-c2ccco2)n[nH]1

Source: ChEMBL document CHEMBL1687694, “Aminoindazole PDK1 Inhibitors: A Case Study in Fragment-Based Drug Discovery” (ACS Med Chem Lett, 2010)
